How the values were obtained:
Format in all cases: cell-based
[1] = biological target: T1, cloned human Kv1.1 potassium channel (Homo sapiens, UniProt Q09470); test: PatchXpress inhibition of cloned human Kv1.1 in HEK293 cells (Example 6); settings: hKv1.1, up to 3000 μM
T1 construct: expressed in transfected cells
Text: (§1) The objective of this study was to examine the in vitro effects and determine the […] of 3,4-DAP phosphate and the metabolite N-(4-aminopyridin-3-yl) acetamide HCl on the following ion channels: cloned human Kv1.1 potassium channel (encoded by the human KCNA1 gene, expressed in HEK293 cells), cloned human Kv1.2 potassium channel (encoded by the human KCNA2 gene, expressed in HEK293 cells), cloned human Kv1.3 potassium channel (encoded by the human KCNA3 gene, expressed in CHO cells), cloned human Kv1.4 potassium channel (encoded by the human KCNA4 gene, expressed in HEK293 cells), cloned human Kv1.5 potassium channel (encoded by the human KCNA5 gene and expressed in CHO cells), responsible for IKur, ultra-rapid delayed rectifier potassium current.
(§2) Chemicals used in solution preparation were purchased from Sigma-Aldrich (St. Louis, Mo.), unless otherwise noted, and were of ACS reagent grade purity or higher. Stock solutions of each test article (100 mM, 30 mM and 1.00 mM 3,4-DAP phosphate and 100 mM N-(4-aminopyridin-3-yl)acetamide) were prepared in sterile water and stored refrigerated. […]
(§3) In preparation for a recording session, intracellular solution was loaded into the intracellular compartments of the Sealchip16. […] After establishment of a whole-cell configuration, membrane currents were recorded using dual-channel patch clamp amplifiers in the PatchXpress®. […]

[2] = biological target: T2, cloned human Kv1.3 potassium channel (Homo sapiens, UniProt P22001); test: PatchXpress inhibition of cloned human Kv1.3 in CHO cells (Example 6); settings: hKv1.3, up to 3000 μM
T2 construct: expressed in transfected cells
Text: as §1, §2, §3

[3] = biological target: T3, cloned human Kv1.5 potassium channel (Homo sapiens, UniProt P22460); test: PatchXpress inhibition of cloned human Kv1.5 in CHO cells (Example 6); settings: hKv1.5, up to 3000 μM
T3 construct: expressed in transfected cells
Text: as §1, §2, §3

T3 sequence (P22460 whole entry): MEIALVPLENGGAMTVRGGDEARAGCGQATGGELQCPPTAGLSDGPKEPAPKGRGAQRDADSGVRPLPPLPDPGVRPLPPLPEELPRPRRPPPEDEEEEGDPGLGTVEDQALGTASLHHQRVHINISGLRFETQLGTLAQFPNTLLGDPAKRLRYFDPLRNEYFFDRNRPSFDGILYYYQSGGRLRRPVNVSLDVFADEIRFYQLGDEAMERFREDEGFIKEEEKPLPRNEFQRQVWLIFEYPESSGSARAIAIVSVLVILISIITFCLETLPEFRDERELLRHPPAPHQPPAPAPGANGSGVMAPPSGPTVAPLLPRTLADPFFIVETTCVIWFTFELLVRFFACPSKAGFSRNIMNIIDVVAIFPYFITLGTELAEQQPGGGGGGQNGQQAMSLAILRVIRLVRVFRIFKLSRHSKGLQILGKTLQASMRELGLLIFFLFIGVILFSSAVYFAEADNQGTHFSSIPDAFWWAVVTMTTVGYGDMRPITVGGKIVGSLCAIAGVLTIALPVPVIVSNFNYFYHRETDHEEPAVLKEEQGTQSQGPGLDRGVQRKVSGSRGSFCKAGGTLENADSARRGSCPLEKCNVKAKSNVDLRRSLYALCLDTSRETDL
T1 sequence (Q09470 whole entry): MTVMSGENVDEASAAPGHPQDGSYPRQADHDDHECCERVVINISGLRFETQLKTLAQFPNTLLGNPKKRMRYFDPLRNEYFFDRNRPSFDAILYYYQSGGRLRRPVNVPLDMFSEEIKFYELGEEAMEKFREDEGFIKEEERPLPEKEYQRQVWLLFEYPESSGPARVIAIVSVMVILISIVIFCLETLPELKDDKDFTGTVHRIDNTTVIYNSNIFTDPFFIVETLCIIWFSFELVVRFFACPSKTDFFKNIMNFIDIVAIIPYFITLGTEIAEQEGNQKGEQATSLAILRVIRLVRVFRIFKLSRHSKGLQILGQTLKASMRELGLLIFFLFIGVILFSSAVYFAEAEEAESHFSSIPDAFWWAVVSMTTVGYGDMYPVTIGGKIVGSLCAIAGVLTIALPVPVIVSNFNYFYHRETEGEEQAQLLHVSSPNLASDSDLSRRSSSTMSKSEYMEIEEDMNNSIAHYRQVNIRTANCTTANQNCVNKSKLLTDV
T2 sequence (P22001 whole entry): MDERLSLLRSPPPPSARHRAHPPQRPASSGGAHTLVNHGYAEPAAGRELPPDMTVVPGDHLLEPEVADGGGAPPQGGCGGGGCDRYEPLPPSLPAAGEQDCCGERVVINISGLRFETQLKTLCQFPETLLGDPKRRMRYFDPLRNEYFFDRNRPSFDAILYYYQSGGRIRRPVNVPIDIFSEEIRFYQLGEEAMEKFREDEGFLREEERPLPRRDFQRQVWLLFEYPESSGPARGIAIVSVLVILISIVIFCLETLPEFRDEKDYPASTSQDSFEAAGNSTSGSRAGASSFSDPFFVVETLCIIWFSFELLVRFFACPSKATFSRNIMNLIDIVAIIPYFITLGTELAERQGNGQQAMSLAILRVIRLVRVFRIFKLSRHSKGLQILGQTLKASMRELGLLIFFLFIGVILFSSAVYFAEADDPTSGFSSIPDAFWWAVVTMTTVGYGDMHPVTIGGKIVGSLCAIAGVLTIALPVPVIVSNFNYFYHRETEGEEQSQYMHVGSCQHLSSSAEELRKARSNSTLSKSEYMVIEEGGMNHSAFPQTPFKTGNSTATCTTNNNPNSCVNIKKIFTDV

- activity on K+ channel [1]: inactive
- activity on K+ channel ([1]; listed as N-acetyl metabolite): not active
- activity on K+ channel [2]: inactive
- activity on K+ channel ([2]; listed as N-acetyl metabolite): not active
- activity on K+ channel [3]: inactive
- activity on K+ channel ([3]; listed as N-acetyl metabolite): not active
SMILES: CC(=O)Nc1cnccc1N [3-N-acetyl amifampridine, N-(4-aminopyridin-3-yl)acetamide]

Reference: patent publication US11274332B2, “Methods of administering 3,4-diaminopyridine” (SERB SA, priority 2011, dated 2022)
